According to paper PMC3501500, “Conformational Selection Underlies Recognition of a Molybdoenzyme by Its Dedicated Chaperone” (PLoS ONE, 2012):

Experiments:
NarJ = conditions: NMR; isolated NarG(1–15) peptide vs NarJ-bound; ref [18]; cited from earlier work
NarG(1–15) peptide = target: T1, NarG(1–15) peptide (Escherichia coli, UniProt P09152); conditions: 2 µM NarJT, 50 mM Tris-HCl pH 7.5, 1 mM MgCl2, 296 K; peptide stock 50 µM
T1 sequence (P09152 whole entry, looked up): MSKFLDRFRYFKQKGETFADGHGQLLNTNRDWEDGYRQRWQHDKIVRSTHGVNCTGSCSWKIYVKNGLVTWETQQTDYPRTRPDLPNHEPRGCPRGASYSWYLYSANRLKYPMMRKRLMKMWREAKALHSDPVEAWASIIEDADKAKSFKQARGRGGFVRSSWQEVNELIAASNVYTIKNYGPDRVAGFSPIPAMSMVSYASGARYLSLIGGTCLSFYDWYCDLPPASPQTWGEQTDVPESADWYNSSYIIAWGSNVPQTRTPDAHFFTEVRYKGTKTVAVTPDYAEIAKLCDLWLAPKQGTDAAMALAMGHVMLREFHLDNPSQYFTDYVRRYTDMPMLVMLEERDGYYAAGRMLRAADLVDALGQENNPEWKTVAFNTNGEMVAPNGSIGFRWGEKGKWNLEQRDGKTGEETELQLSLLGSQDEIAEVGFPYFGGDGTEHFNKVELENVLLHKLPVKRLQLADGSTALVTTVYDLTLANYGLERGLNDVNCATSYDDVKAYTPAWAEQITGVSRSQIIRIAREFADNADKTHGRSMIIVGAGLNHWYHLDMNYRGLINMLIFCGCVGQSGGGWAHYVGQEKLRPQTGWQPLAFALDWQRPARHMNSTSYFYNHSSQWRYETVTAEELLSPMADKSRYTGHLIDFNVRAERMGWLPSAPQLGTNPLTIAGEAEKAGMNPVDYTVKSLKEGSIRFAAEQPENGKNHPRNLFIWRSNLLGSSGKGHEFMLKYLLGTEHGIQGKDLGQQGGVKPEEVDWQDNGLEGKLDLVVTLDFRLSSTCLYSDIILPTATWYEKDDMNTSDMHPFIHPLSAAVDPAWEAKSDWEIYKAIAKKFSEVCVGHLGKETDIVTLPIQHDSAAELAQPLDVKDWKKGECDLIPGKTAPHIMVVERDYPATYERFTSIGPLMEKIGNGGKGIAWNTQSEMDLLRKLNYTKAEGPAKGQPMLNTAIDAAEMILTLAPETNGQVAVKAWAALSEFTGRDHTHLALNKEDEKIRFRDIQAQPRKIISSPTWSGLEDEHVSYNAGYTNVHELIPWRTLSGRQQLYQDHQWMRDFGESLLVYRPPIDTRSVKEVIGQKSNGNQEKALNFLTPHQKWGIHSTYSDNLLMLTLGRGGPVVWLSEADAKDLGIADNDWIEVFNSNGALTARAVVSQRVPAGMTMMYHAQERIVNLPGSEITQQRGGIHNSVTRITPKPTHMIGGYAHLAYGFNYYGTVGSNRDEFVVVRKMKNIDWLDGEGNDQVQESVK
Protocol: Tryptophan fluorescence spectroscopy
Increasing concentrations of NarG(1–15) peptide at 50 µM (initial concentration) were then added and the emission fluorescence was scanned. Excitation was at 285 nm and emission was recorded from 310 to 410 nm with excitation and emission band-passes at 2 nm. […] Dissociation constants were calculated by plotting relative fluorescence peak integration against ligand concentration and curve-fitting using Origin software.
Indicated values are the average of at least three independent measurements.

Substance: NarG(1–15) peptide: N-terminal NarG peptide, first 15 residues, chemically synthesized and purified by Synprosis (MSKFLDRFRYFKQKG; UniProt P09152 1-15, looked up, fragment)
- structure of peptide upon NarJ binding (in words) (NarJ): remains unchanged upon NarJ binding
- maximal decrease of the tryptophan fluorescence of NarJT upon peptide addition (NarG(1–15) peptide): 30%
